The target of one test is T1, rASIC1b N324K (Rattus norvegicus, UniProt P55926, N291K).
T1 construct: expressed in transfected cells; host or cells: Xenopus laevis oocytes injected with cRNA
T1 sequence (P55926 1-559 isoform P55926-3 N324K): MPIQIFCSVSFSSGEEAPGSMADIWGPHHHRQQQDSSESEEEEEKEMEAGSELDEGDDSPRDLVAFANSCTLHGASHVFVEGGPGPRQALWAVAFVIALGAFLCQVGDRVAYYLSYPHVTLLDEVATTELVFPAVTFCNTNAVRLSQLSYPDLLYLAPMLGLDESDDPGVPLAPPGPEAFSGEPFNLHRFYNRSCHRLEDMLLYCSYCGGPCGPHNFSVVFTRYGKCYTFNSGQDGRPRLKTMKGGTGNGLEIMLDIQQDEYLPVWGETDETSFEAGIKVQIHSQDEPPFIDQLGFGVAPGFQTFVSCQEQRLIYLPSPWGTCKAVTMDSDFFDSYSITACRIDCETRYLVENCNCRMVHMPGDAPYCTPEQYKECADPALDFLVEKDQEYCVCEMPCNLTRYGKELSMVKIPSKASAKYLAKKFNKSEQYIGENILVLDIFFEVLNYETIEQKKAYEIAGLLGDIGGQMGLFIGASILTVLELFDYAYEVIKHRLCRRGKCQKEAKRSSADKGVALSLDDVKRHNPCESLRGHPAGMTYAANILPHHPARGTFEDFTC
The experiment in a line: TEVC oocytes, rASIC1b N324K mutant. It is filed as cell-based. As to conditions: 300 nM Ma-3, conditioning pH 7.45; Hill fit, n = 5–6. As for the experimental part:
(§1) Two-electrode voltage-clamp (TEVC) experiments using Xenopus laevis oocytes were conducted as previously described. Briefly, oocytes were surgically removed from anaesthetised female frogs, then treated with collagenase (~ 1 mg/ml, Sigma type I) for 2 h under agitation at room temperature. cRNAs were synthesised using a mMessage mMachine T7 or SP6 transcription kit (Thermo Fisher Scientific Australia Pty Ltd, Scoresby, VIC, Australia) and injected into healthy stage V–VI oocytes at 0.2–20 ng per cell. […] Membrane currents were recorded 2–7 days after cRNA-injection under voltage-clamp at -60 mV (Axon Axoclamp 900 A, Molecular Devices, CA, USA) using two standard glass microelectrodes of 0.5–1 MΩ resistance when filled with 3 M KCl solution. […]
(§2) Specific to this work, the standard protocol was for oocytes to be conditioned at pH 7.45 and channels stimulated every 60 s using a 5 s pH 5 or 6 application, unless stated otherwise. […] Activation curves were determined by conditioning oocytes at pH 8 (Fig. 2e − g; and Fig. 5a and b) or 7.45 (Fig. 6; and Supplementary Fig. 2d and c) for 55 s and applying low pH stimuli from 7.25 to 5.0 for 5 s. Steady-state desensitisation (SSD) was determined by applying conditioning solutions of pH values from 8 to 6 for 115 s prior to stimulation by a pH drop to 5 for 5 s. […] Control pH-dependence curves were determined in the absence of any Ma-3. […]

The test system of test [1] is rASIC1a: rASIC1b chimera C92. The experiment in a line: TEVC oocytes, rASIC1a: rASIC1b chimera C92. The conditions noted are these: conditioning pH 7.45, stimulating pH 5. Type of test: cell-based, rat. As for the experimental part:
as §1, §2

Consider 1 substance from article PMC11335189, “Revealing molecular determinants governing mambalgin-3 pharmacology at acid-sensing ion channel 1 variants” (Cellular and Molecular Life Sciences: CMLS, 2024).

Positions of bridges follow the written chain, without caps; N, C: chain ends. No end group written: not given here.

Regarding “H-SLKCYQHGKVVTCHRDMKFCYHNIGMPFRNLKLILQGCSSSCSETENNKCCSTDRCNK (disulfide 4-20, 13-38, 42-50, 51-56 (inferred)) [Ma-3, mambalgin-3]”, the “pH50 of activation in presence of Ma-3” value at rASIC1b N324K was found to be 6.21. In addition, in test [1], the “activity of 300 nM Ma-3” value is recorded as “only partially inhibited”.
